{"source": "PubChem BioAssay (NCI)", "test_in_all_cases": "NCI-60 cell line screen, 48 h", "key": {"BT-549 breast": {"tested_on": "BT-549 breast"}, "SF-295 CNS": {"tested_on": "SF-295 CNS"}, "TK-10 renal": {"tested_on": "TK-10 renal"}, "COLO 205 colon": {"tested_on": "COLO 205 colon"}, "OVCAR-3 ovarian": {"tested_on": "OVCAR-3 ovarian"}, "UACC-257 melanoma": {"tested_on": "UACC-257 melanoma"}, "UACC-62 melanoma": {"tested_on": "UACC-62 melanoma"}, "A549 NSCLC": {"tested_on": "A549 NSCLC"}, "HL-60(TB) leukemia": {"tested_on": "HL-60(TB) leukemia"}, "CCRF-CEM leukemia": {"tested_on": "CCRF-CEM leukemia"}, "OVCAR-5 ovarian": {"tested_on": "OVCAR-5 ovarian"}, "HCT-15 colon": {"tested_on": "HCT-15 colon"}, "UO-31 renal": {"tested_on": "UO-31 renal"}, "RXF 393 renal": {"tested_on": "RXF 393 renal"}, "SW-620 colon": {"tested_on": "SW-620 colon"}, "EKVX NSCLC": {"tested_on": "EKVX NSCLC"}, "MDA-MB-231 breast": {"tested_on": "MDA-MB-231 breast"}, "PC-3 prostate": {"tested_on": "PC-3 prostate"}, "NCI-H23 lung": {"tested_on": "NCI-H23 lung"}, "CAKI-1 renal": {"tested_on": "CAKI-1 renal"}, "OVCAR-4 ovarian": {"tested_on": "OVCAR-4 ovarian"}, "MDA-MB-435": {"tested_on": "MDA-MB-435"}, "MALME-3M melanoma": {"tested_on": "MALME-3M melanoma"}, "A498 renal": {"tested_on": "A498 renal"}, "786-0 renal": {"tested_on": "786-0 renal"}, "NCI-H460 lung": {"tested_on": "NCI-H460 lung"}, "HCT-116 colon": {"tested_on": "HCT-116 colon"}, "HOP-62 NSCLC": {"tested_on": "HOP-62 NSCLC"}, "MCF7 breast": {"tested_on": "MCF7 breast"}, "HOP-92 NSCLC": {"tested_on": "HOP-92 NSCLC"}, "M14 melanoma": {"tested_on": "M14 melanoma"}, "NCI-H226 lung": {"tested_on": "NCI-H226 lung"}, "DU-145 prostate": {"tested_on": "DU-145 prostate"}, "NCI/ADR-RES ovarian": {"tested_on": "NCI/ADR-RES ovarian"}, "OVCAR-8 ovarian": {"tested_on": "OVCAR-8 ovarian"}, "SK-MEL-28 melanoma": {"tested_on": "SK-MEL-28 melanoma"}, "SN12C renal": {"tested_on": "SN12C renal"}, "SK-MEL-2 melanoma": {"tested_on": "SK-MEL-2 melanoma"}, "RPMI-8226 leukemia": {"tested_on": "RPMI-8226 leukemia"}, "SNB-75 CNS": {"tested_on": "SNB-75 CNS"}, "U251 CNS": {"tested_on": "U251 CNS"}, "HT29 colon": {"tested_on": "HT29 colon"}, "SF-539 CNS": {"tested_on": "SF-539 CNS"}, "SK-OV-3 ovarian": {"tested_on": "SK-OV-3 ovarian"}, "HS 578T breast": {"tested_on": "HS 578T breast"}, "ACHN renal": {"tested_on": "ACHN renal"}, "T-47D breast": {"tested_on": "T-47D breast"}}, "note": "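Tested at 5 concentrations; 48 h exposure; 96-well plates; endpoints linearly interpolated, else capped at highest concentration. The concentration for full growth arrest is given as TGI.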", "data": [{"smiles": "CCCCCCCCCc1cccc(N2C(N)=NC(N)=NC2(C)C)c1", "values": [{"measurement": "TGI", "setting": "BT-549 breast", "value": 3.86, "unit": "µM"}, {"measurement": "TGI", "setting": "SF-295 CNS", "value": 74.6, "unit": "µM"}, {"measurement": "TGI", "setting": "TK-10 renal", "value": 1.48, "unit": "µM"}, {"measurement": "TGI", "setting": "COLO 205 colon", "value": 2.38, "unit": "µM"}, {"measurement": "TGI", "setting": "OVCAR-3 ovarian", "value": 0.193, "unit": "µM"}, {"measurement": "TGI", "setting": "UACC-257 melanoma", "value": 2.13, "unit": "µM"}, {"measurement": "TGI", "setting": "UACC-62 melanoma", "value": 4.07, "unit": "µM"}, {"measurement": "TGI", "setting": "A549 NSCLC", "value": 4.26, "unit": "µM"}, {"measurement": "TGI", "setting": "HL-60(TB) leukemia", "value": 1.71, "unit": "µM"}, {"measurement": "TGI", "setting": "CCRF-CEM leukemia", "value": "> 100", "unit": "µM"}, {"measurement": "TGI", "setting": "OVCAR-5 ovarian", "value": 4.67, "unit": "µM"}, {"measurement": "TGI", "setting": "HCT-15 colon", "value": 0.169, "unit": "µM"}, {"measurement": "TGI", "setting": "UO-31 renal", "value": "> 42.4", "unit": "µM"}, {"measurement": "TGI", "setting": "RXF 393 renal", "value": "> 100", "unit": "µM"}, {"measurement": "TGI", "setting": "SW-620 colon", "value": 1.63, "unit": "µM"}, {"measurement": "TGI", "setting": "EKVX NSCLC", "value": 10.5, "unit": "µM"}, {"measurement": "TGI", "setting": "MDA-MB-231 breast", "value": 3.37, "unit": "µM"}, {"measurement": "TGI", "setting": "PC-3 prostate", "value": "> 35.7", "unit": "µM"}, {"measurement": "TGI", "setting": "NCI-H23 lung", "value": 0.277, "unit": "µM"}, {"measurement": "TGI", "setting": "CAKI-1 renal", "value": 2.5, "unit": "µM"}, {"measurement": "TGI", "setting": "OVCAR-4 ovarian", "value": 4.39, "unit": "µM"}, {"measurement": "TGI", "setting": "MDA-MB-435", "value": 1.83, "unit": "µM"}, {"measurement": "TGI", "setting": "MALME-3M melanoma", "value": 8.22, "unit": "µM"}, {"measurement": "TGI", "setting": "A498 renal", "value": 16.7, "unit": "µM"}, {"measurement": "TGI", "setting": "786-0 renal", "value": 1.3, "unit": "µM"}, {"measurement": "TGI", "setting": "NCI-H460 lung", "value": "> 100", "unit": "µM"}, {"measurement": "TGI", "setting": "HCT-116 colon", "value": 1.15, "unit": "µM"}, {"measurement": "TGI", "setting": "HOP-62 NSCLC", "value": 1.24, "unit": "µM"}, {"measurement": "TGI", "setting": "MCF7 breast", "value": "> 100", "unit": "µM"}, {"measurement": "TGI", "setting": "HOP-92 NSCLC", "value": "> 100", "unit": "µM"}, {"measurement": "TGI", "setting": "M14 melanoma", "value": 1.53, "unit": "µM"}, {"measurement": "TGI", "setting": "NCI-H226 lung", "value": 61.2, "unit": "µM"}, {"measurement": "TGI", "setting": "DU-145 prostate", "value": 8.4, "unit": "µM"}, {"measurement": "TGI", "setting": "NCI/ADR-RES ovarian", "value": 24.9, "unit": "µM"}, {"measurement": "TGI", "setting": "OVCAR-8 ovarian", "value": 16, "unit": "µM"}, {"measurement": "TGI", "setting": "SK-MEL-28 melanoma", "value": 3.44, "unit": "µM"}, {"measurement": "TGI", "setting": "SN12C renal", "value": 2.33, "unit": "µM"}, {"measurement": "TGI", "setting": "SK-MEL-2 melanoma", "value": 4.65, "unit": "µM"}, {"measurement": "TGI", "setting": "RPMI-8226 leukemia", "value": "> 100", "unit": "µM"}, {"measurement": "TGI", "setting": "SNB-75 CNS", "value": 25.9, "unit": "µM"}, {"measurement": "TGI", "setting": "U251 CNS", "value": 0.62, "unit": "µM"}, {"measurement": "TGI", "setting": "HT29 colon", "value": 1.33, "unit": "µM"}, {"measurement": "TGI", "setting": "SF-539 CNS", "value": 2.1, "unit": "µM"}, {"measurement": "TGI", "setting": "SK-OV-3 ovarian", "value": "> 33.1", "unit": "µM"}, {"measurement": "TGI", "setting": "HS 578T breast", "value": 6.48, "unit": "µM"}, {"measurement": "TGI", "setting": "ACHN renal", "value": 1.06, "unit": "µM"}, {"measurement": "TGI", "setting": "T-47D breast", "value": 5.75, "unit": "µM"}]}]}
